Tests used:
[1] = test system: bone marrow monocytes of db/db mice; test: CD115+CD11b+ monocyte concentration in bone marrow by flow cytometry; type: in vivo, mouse; conditions: NAC 150 mg/kg/day via drinking water for 8 weeks, FIG. 6C
Text: 8-12 weeks old male C57BL/6J wild type (WT) and […] (db/db) mice were used in the studies. All mice were purchased from Jackson Laboratories and were maintained in mouse barrier facilities. Care and use of mice was in accordance with NIH guidelines and the Institutional Animal Care and Use Committee of the University of Massachusetts Medical School approved protocols. db/db and WT mice were fed standard chow diet (5.4 g/100 g diet, 0% cholesterol) and HFD mice were generated by feeding C57BL/6J mice a high fat diet (60% fat calories; Research Diet, New Brunswick, N.J.). N-acetylcysteine (NAC) was given for 8 weeks (150 mg/kg/day via drinking water.

[2] = test system: Dnmt1; test: Dnmt1 expression in HSCs (qRT-PCR, Western blot); type: cell-based, mouse
Description: Quantification was performed using ImageJ software.
Total RNA was isolated using the mirVana miRNA isolation kit (Applied Biosystems). cDNA was synthesized using the QuantiMir RT Kit small RNA quantification system (SBI). qRT-PCR was performed as described previously. Mouse U6 was used as an endogenous control. The let-7d-3p mimic and inhibitor were purchased from Life Technologies (catalog numbers 4464066 and 4464084, respectively).

[3] = test system: HSCs from db/db mice; test: Intracellular ROS (DCF) in HSCs of db/db mice given NAC; type: in vivo, mouse; conditions: NAC 150 mg/kg/day via drinking water for 8 weeks, FIG. 6A
Text: 8-12 weeks old male C57BL/6J wild type (WT) and […] (db/db) mice were used in the studies. All mice were purchased from Jackson Laboratories and were maintained in mouse barrier facilities. Care and use of mice was in accordance with NIH guidelines and the Institutional Animal Care and Use Committee of the University of Massachusetts Medical School approved protocols. db/db and WT mice were fed standard chow diet (5.4 g/100 g diet, 0% cholesterol) and HFD mice were generated by feeding C57BL/6J mice a high fat diet (60% fat calories; Research Diet, New Brunswick, N.J.). N-acetylcysteine (NAC) was given for 8 weeks (150 mg/kg/day via drinking water. Whole bone marrow cells were flushed out from femurs and tibialis. Bone marrow cells were stained with antibodies for the identification of HSCs (c-Kit^+Scal^+lineage^-CD90.1^lo/-). The antibodies used were: c-Kit (1:50, eBioscience 12-1171, clone: 2B8), Sca-1 (1:50, eBioscience 11-5981, clone: D7), CD90.1 (1:50, eBioscience 45-0900, clone:[…]) and a lineage cocktail antibody (1:50, BD Bioscience 558074). As for the gating strategy for flow cytometry, we first gated on single, viable cells and eliminated any debris, dead cells and clumps or doublets. Next, gates were drawn on the c-Kitpositive/Scal-positive/lineage-negative/CD90.1^low-negative population for HSC sorting. […]

[4] = test system: Dnmt3a and DNMT3b; test: Dnmt3a and Dnmt3b expression in db/db HSCs (qRT-PCR, Western blot); conditions: FIGS. 7E-F
[5] = test system: Dnmt1 M1 and Dnmt1 M2 (mutated let-7d-3p binding sites in Dnmt1 3′ UTR); test: Mutant Dnmt1 3' UTR luciferase reporter assay in HEK293T cells; type: cell-based, mouse; conditions: FIG. 8C
Description: (§1) HEK293T cells grown in 96-well plates were transfected with pmirGLO containing the Dnmt1 3′ UTR region that includes the let-7d-3p binding sites. The cells were co-transfected with let-7d-3p using Lipofectamine (Invitrogen). The Firefly and Renilla luciferase activities in the cell lysates were assayed with a Dual-Luciferase Reporter Assay System (Promega) at 48 h post-transfection. To generate the mutant variants, point mutations in the binding sites of let-7d-3p in the 3′-UTR region of Dnmt1 were introduced by PCR according to the site-directed mutagenesis protocol from Agilent. The two mutants that were generated are labeled “Dnmt1 M1” and “Dnmt1 M2”. The binding sequence of let-7d-3p in mouse Dnmt1 3′UTR is: […]

[6] = test system: Notch1, PU.1 and Klf4 genes; test: DNA methylation of Notch1, PU.1 and Klf4 by pyrosequencing; type: cell-based, mouse; conditions: db/db HSCs; FIG. 14A, FIG. 15, FIG. 16
Description: Genomic DNA was isolated by traditional phenol-chloroform extraction and isopropanol precipitation. DNA concentration was measured using a Nano Drop spectrophotometer. Around 500 ng genomic DNA were bisulfite converted by EZ DNA methylation-Gold kit following the manufacturer's instructions (Zymo Research). PCR amplification was performed using 2×HiFi Hotstart Uracil+ready mix PCR (Kapa Biosystems). PCR and pyrosequencing primer sets with one biotin-labeled primer were used to amplify the bisulfite converted DNA. Primers were designed using PyroMark Assay Design software version 2.0.1.15 (Qiagen). The size of the amplicons was 200 bp or less. Briefly, 5 μl master mix, […] of each primer, 20 ng genomic DNA and ultra-pure water to a final volume of 10 μl were mixed for each reaction and run at thermal cycling conditions: 95° C. for 3 min and then 50 cycles: 20 sec at 98° C.; 15 sec at the optimized primer-specific annealing temperature; 15 sec at 72° C. and a final extension for 1 min at 72° C. […] PyroGold reagents were used for the pyrosequencing reaction and the signal was analyzed using the PSQ 96MA system (Biotage, Uppsala, Sweden). Target CGs were evaluated by instrument software (PSQ96MA 2.1), which converts the pyrograms to numerical values for peak heights and calculates the methylation at each base as a C/T ratio.

[7] = test system: H3K9me2 and H3K9me3 at Klf4, PU.1 and Notch1 promoters; test: ChIP-PCR of H3K9 histone methylation at Notch1, PU.1 and Klf4; type: cell-based, mouse; conditions: db/db HSCs; FIG. 17B and FIG. 18
Description: 1×10^6 HSCs were sorted and cross-linked with 1% formaldehyde at room temperature for 10 min, and the reaction was stopped by adding Glycine to a final concentration of 0.125M and incubating at room temperature for 5 min. Cross-linked cells were lysed in lysis buffer and sonicated to 200-500 bp fragments (Bioruptor, Diagenode). The sonicated chromatin was centrifuged at 4° C. for 5 min. The cross-linked DNA was immunoprecipitated with H3K9me3, H3K9me2 or H3K9Ac antibodies (Millipore, USA) overnight at 4° C. with rotation, DNA-Antibody complexes were bound to ChIP beads, pulled down, washed and then eluted from the beads. Following reversal of cross-linkage, purified DNA was used for quantitative PCR using ChIP PCR primers purchased from IDT (MA, USA). Immunoprecipitation efficiency was calculated by normalizing sample CT values against control IgG values and calculating ratios of sample CT values relative to input values.

[8] = test system: mouse Dnmt1 3′ UTR region; test: Dnmt1 3' UTR luciferase reporter assay in HEK293T cells; type: cell-based; conditions: 48 h post-transfection, FIG. 8C
Description: as §1

Row | Compound | monocyte concentration in bone marrow [1] | expression of DNMT1 in db/db HSCs ([2]; db/db HSCs, compared with WT HSCs, FIGS. 7E-F) | oxidant stress in HSCs (DCF positive cells) [3] | mRNA or protein levels of Dnmt3a and DNMT3b [4] | luciferase activity, let-7d-3p binding sites in Dnmt1 3′ UTR mutated [5] | methylation of Notch1, PU.1, Klf4 [6] | histone methylation levels (H3K9me2, H3K9me3) [7] | luciferase activity, intact 3′ UTR construct [8] | Dnmt1 expression in db/db HSCs ([2]; db/db HSCs transfected, FIGS. 8F-G)
1 | CC(=O)N[C@@H](CS)C(=O)O [N-acetylcysteine] | restored | restored | reversed | did not change | – | – | – | – | –
2 | let-7d-3p mimic: let-7d-3p mimic purchased from Life Technologies (catalog number 4464066); microRNA that binds the Dnmt1 3′ UTR (guide CUAUACGACCUGCUGCCUUUCU; chemistry not given here) | – | – | – | – | didn't affect | decreased | decreased | significantly repressed | decreased

Source: patent US11814623B2, “Methods of treating a wound using epigenetic regulation” (University of Massachusetts, priority 2018, dated 2023)
